Experimental data reported in paper PMC6792352, “Limited Chemical Structural Diversity Found to Modulate Thyroid Hormone Receptor in the Tox21 Chemical Library” (Environmental Health Perspectives, 2019).
Counter-ions that a name gives are not always drawn.

Assay: in vitro
Conditions: rat, gh3-tre-luc cells

Structure (SMILES)	CC50 at 24 h (AC50 (uM) modified / 1000)	other results
Cc1ccc2c(Br)cc(Br)c(O)c2n1 [Broquinaldol]	23 µM	
Cc1nnc2n1-c1sc(Br)cc1C(c1ccccc1Cl)=NC2 [Brotizolam]	32.6 µM	
Oc1c(Br)cc(Br)c2cccnc12 [Broxyquinoline]	24.9 µM	
COc1cc2c(cc1OC)[C@@]13CCN4CC5=CCO[C@H]6CC(=O)N2[C@H]1[C@H]6[C@H]5C[C@H]43 [Brucine]		CC50 at 24 h (AC50 (uM) modified / 1000, Tox21_110001=Tox21_111349, viability, 1 nM T3 present, 24 h): > 50 µM; CC50 at 24 h (AC50 (uM) modified / 1000, Tox21_110001=Tox21_302174, viability, 1 nM T3 present, 24 h): > 90 µM
CCC/C=C/C=C/C(=O)O[C@H]1/C(=C/C(=O)OC)C[C@H]2C[C@H]([C@@H](C)O)OC(=O)C[C@H](O)C[C@@H]3C[C@H](OC(C)=O)C(C)(C)[C@](O)(C[C@@H]4C/C(=C/C(=O)OC)C[C@H](/C=C/C(C)(C)[C@]1(O)O2)O4)O3 [Bryostatin 1]		CC50 at 24 h (AC50 (uM) modified / 1000, Tox21_110001=Tox21_112754, viability, 1 nM T3 present, 24 h): 9.94 µM
CC(C)(S)C(=O)N[C@@H](CS)C(=O)O [Bucillamine]	> 50 µM	
CC(C)(Cc1c[nH]c2ccccc12)NCC(O)COc1ccccc1C#N (stereo not drawn) [Bucindolol]	20.5 µM	
CCCC(=O)Nc1ncnc2c1ncn2[C@@H]1O[C@@H]2COP(=O)(O)O[C@H]2[C@H]1OC(=O)CCC [Bucladesine]	> 50 µM	
CC(C)(C)c1ccc(CN2CCN(C(c3ccccc3)c3ccc(Cl)cc3)CC2)cc1 (stereo not drawn) [Buclizine dihydrochloride]	32.6 µM	
CCCCC1C(=O)NC(=O)N(C2CCCCC2)C1=O (stereo not drawn) [Bucolome]		CC50 at 24 h (AC50 (uM) modified / 1000, Tox21_110001=Tox21_113339, viability, 1 nM T3 present, 24 h): > 50 µM
CCCC1O[C@@H]2C[C@H]3[C@@H]4CCC5=CC(=O)C=C[C@]5(C)[C@H]4[C@@H](O)C[C@]3(C)[C@]2(C(=O)CO)O1 (stereo partly drawn) [Budesonide]	> 90 µM	
CCCCOc1ccc(CC(=O)NO)cc1 [Bufexamac]	> 20 µM	
C[C@]12CC[C@H](O)C[C@H]1CC[C@@H]1[C@@H]2CC[C@]2(C)[C@@H](c3ccc(=O)oc3)C[C@H]3O[C@]132 [Bufogenin]		CC50 at 24 h (AC50 (uM) modified / 1000, Tox21_110001=Tox21_112671, viability, 1 nM T3 present, 24 h): > 50 µM
CCCCNC(=N)NC(=N)N [Buformin]	> 50 µM	
CN(C)CCc1c[nH]c2ccc(O)cc12 [Bufotenine]		CC50 at 24 h (AC50 (uM) modified / 1000, Tox21_110001=Tox21_112890, viability, 1 nM T3 present, 24 h): > 90 µM
CCCCN1CCCC1C(=O)Nc1c(C)cc(C)cc1C (stereo not drawn) [Bumecaine]	> 50 µM	
CCCCNc1cc(C(=O)O)cc(S(N)(=O)=O)c1Oc1ccccc1 [Bumetanide]	> 20 µM	
Cc1cc(-n2nc3ccc(Cl)cc3n2)c(O)c(C(C)(C)C)c1 [Bumetrizole]	> 50 µM	
CCCCCCOc1ccc(C(=N)N(CCCC)CCCC)c2ccccc12 [Bunamidine hydrochloride]	5.23 µM	
CCCC(=O)N1CCCN(c2nc(N)c3cc(OC)c(OC)cc3n2)CC1 [Bunazosin hydrochloride]	> 50 µM	
CCCCc1c(C)nc(NCC)nc1OS(=O)(=O)N(C)C [Bupirimate]	> 90 µM	

Structure (SMILES)	CC50 at 24 h (AC50 (uM) modified / 1000)	other results
CO[C@]12CC[C@@]3(C[C@@H]1[C@](C)(O)C(C)(C)C)[C@H]1Cc4ccc(O)c5c4[C@@]3(CCN1CC1CC1)[C@H]2O5 [Buprenorphine hydrochloride]	23.1 µM	
CC(C)N1C(=O)N(c2ccccc2)CS/C1=N\C(C)(C)C [Buprofezin]	45.1 µM	
CC(NC(C)(C)C)C(=O)c1cccc(Cl)c1 (stereo not drawn) [Bupropion hydrochloride]	> 50 µM	
CCOC(=O)c1cnc2cc(OCC(C)C)c(OCC(C)C)cc2c1O [Buquinolate]	> 50 µM	
O=C1CC2(CCCC2)CC(=O)N1CCCCN1CCN(c2ncccn2)CC1 [Buspirone]	89.7 µM	
CS(=O)(=O)OCCCCOS(C)(=O)=O [Busulfan]	> 90 µM	
CCCCN(CCCC)CCCOC(=O)c1ccc(N)cc1 [Butacaine]	> 20 µM	
CCCCOCN(C(=O)CCl)c1c(CC)cccc1CC [Butachlor]	49.4 µM	
CC(C)(C)[C@]1(O)CCN2C[C@H]3c4ccccc4CCc4cccc(c43)[C@@H]2C1 [Butaclamol hydrochloride]	22.9 µM	
C=CCOC(=O)C(C)(C)OC(=O)c1cc(-n2c(=O)cc(C(F)(F)F)n(C)c2=O)ccc1Cl [Butafenacil]	> 90 µM	
CCCCNC(C)(C)[PH](=O)O [Butafosfan]	> 50 µM	
CC(C)N(Cc1ccccc1)C(=O)C(C)(C)C [Butam]	> 90 µM	
CCC(C(=O)OCCOCCN(CC)CC)c1ccccc1 (stereo not drawn) [Butamirate citrate]	> 50 µM	
CCCC=NO [Butanal oxime]		CC50 at 24 h (AC50 (uM) modified / 1000, Tox21_110001=Tox21_201786, viability, 1 nM T3 present, 24 h): > 90 µM
C=C(C)C(=O)OCCCCOC(=O)C(=C)C [Butane-1,4-diyl bis(2-methylprop-2-enoate)]	> 90 µM	
CCCCS(=O)(=O)Cl [Butane-1-sulfonyl chloride]	> 90 µM	
O=C(O)CCC(=O)O [Butanedioic acid]	> 90 µM	
CCCC(=O)O [Butanoic acid]	> 100 µM	
CCCC(=O)OC(=O)CCC [Butanoic anhydride]	> 90 µM	
CN(Cc1ccc(C(C)(C)C)cc1)Cc1cccc2ccccc12 [Butenafine]	27.3 µM	
CCC(C(=O)OCCN(CC)CC)c1ccccc1 (stereo not drawn) [Butetamate]	> 50 µM	

Structure (SMILES)	CC50 at 24 h (AC50 (uM) modified / 1000)	other results
OC(C#CCN1CCCC1)(c1ccccc1)c1ccccc1 [Butinoline]	35.3 µM	
NCC[C@H](O)C(=O)N[C@@H]1C[C@H](N)[C@@H](O[C@H]2O[C@H](CN)[C@@H](O)[C@H](O)[C@H]2N)[C@H](O[C@@H]2O[C@H](CO)C(O)[C@H]2O)[C@H]1O (stereo partly drawn) [Butirosin disulfate]	> 20 µM	
Clc1ccc(CCC(Cn2ccnc2)Sc2c(Cl)cccc2Cl)cc1 (stereo not drawn) [Butoconazole nitrate]	> 20 µM	
CCCC(=O)OC(C(Cl)(Cl)Cl)P(=O)(OC)OC (stereo not drawn) [Butonate]		CC50 at 24 h (AC50 (uM) modified / 1000, Tox21_110001=Tox21_111908, viability, 1 nM T3 present, 24 h): > 50 µM
CNC(=O)ON=C(C)C(C)S(C)(=O)=O (stereo not drawn) [Butoxycarboxim]	> 900 µM	
CCC(C)Nc1c([N+](=O)[O-])cc(C(C)(C)C)cc1[N+](=O)[O-] (stereo not drawn) [Butralin]	68.1 µM	
C#CC(C)N(C)C(=O)Nc1ccc(Cl)cc1 (stereo not drawn) [Buturon]	> 90 µM	
CCCCOC(=O)c1ccccc1C(=O)OCC(CC)CCCC (stereo not drawn) [Butyl 2-ethylhexyl phthalate]	> 90 µM	
CCCCOC(=O)C(C)CC (stereo not drawn) [Butyl 2-methylbutyrate]	> 90 µM	
CCCCOC(=O)CCS [Butyl 3-mercaptopropionate]	> 90 µM	
CCCCOC(=O)c1ccc(N)cc1 [Butyl 4-aminobenzoate]	> 50 µM	
CCCCOC(=O)CCC(C)=O [Butyl 4-oxopentanoate]	> 90 µM	
CCCCOC(=O)[C@H](C)O [Butyl (2S)-2-hydroxypropanoate]	> 90 µM	
CCCCOC(C)=O [Butyl acetate]	> 90 µM	
C=CC(=O)OCCCC [Butyl acrylate]	> 90 µM	
CCCCOC(=O)c1ccccc1N [Butyl anthranilate]		CC50 at 24 h (AC50 (uM) modified / 1000, Tox21_110001=Tox21_201173, viability, 1 nM T3 present, 24 h): > 90 µM
CCCCOC(=O)c1ccccc1 [Butyl benzoate]	> 90 µM	
CCCCOC(=O)CC#N [Butyl cyanoacetate]	> 100 µM	
CCCOCC(C)OCC(C)O (stereo not drawn) [Butyl dipropasol solvent]	> 90 µM	
CCCCOCC1CO1 (stereo not drawn) [Butyl glycidyl ether]	> 90 µM	
CCCCOC(=O)CO [Butyl hydroxyacetate]	> 90 µM	

Structure (SMILES)	CC50 at 24 h (AC50 (uM) modified / 1000)	other results
CCCCN=C=O [Butyl isocyanate]	> 90 µM	
CCCCOC(=O)C(C)O (stereo not drawn) [Butyl lactate]	> 90 µM	
C=C(C)C(=O)OCCCC [Butyl methacrylate]	> 90 µM	
CCCCOC(=O)CC [Butyl propionate]	> 90 µM	
C=CCCCCCCCCC(=O)OCCCC [Butyl undec-10-enoate]	> 90 µM	
CCCCN(CCCCO)N=O [Butyl-N-(4-hydroxybutyl)nitrosamine]		CC50 at 24 h (AC50 (uM) modified / 1000, Tox21_110001=Tox21_301263, viability, 1 nM T3 present, 24 h): > 90 µM
CCCCN [Butylamine]	> 50 µM	
CCSC(=O)N(CC(C)C)CC(C)C [Butylate]	> 90 µM	
COc1ccc(O)c(C(C)(C)C)c1 [Butylated hydroxyanisole]	> 90 µM	
CCCCc1ccccc1 [Butylbenzene]	> 90 µM	
CCC1COC(=O)O1 (stereo not drawn) [Butylene carbonate]	> 90 µM	
CCCCc1ccc2ccccc2c1S(=O)(=O)O [Butylnaphthalenesulfonic acid sodium salt]	> 90 µM	
CCCCOC(=O)c1ccc(O)cc1 [Butylparaben]	> 50 µM	
CCCCOC(=O)COC(=O)c1ccccc1C(=O)OCCCC [Butylphthalyl butylglycolate]	> 90 µM	
CCCC[N+]1(C)[C@@H]2CC(OC(=O)[C@H](CO)c3ccccc3)C[C@H]1[C@@H]1O[C@@H]12 (stereo partly drawn) [Butylscopolammonium bromide]	> 50 µM	
CCCC=O [Butyraldehyde]	> 90 µM	
CCCC(=O)c1ccccc1 [Butyrophenone]	> 90 µM	
CCCC(=O)Cl [Butyryl chloride]		CC50 at 24 h (AC50 (uM) modified / 1000, Tox21_110001=Tox21_200294, viability, 1 nM T3 present, 24 h): > 90 µM
CCCCCCOC(=O)CC(CC(=O)OCCCCCC)(OC(=O)CCC)C(=O)OCCCCCC [Butyryl trihexyl citrate]	> 90 µM	
CCCCCCCCCCCCCCCS(=O)(=O)Oc1ccccc1 [C10-21 alkanesulfonic acids phenyl esters]	> 50 µM	
